Measurements as given in patent US4857455A, “Method for the determination of peroxidase using fluorogenic substrates” (Syntex (U.S.A) Inc., priority 1982, dated 1989).
Values joined by “and” are separate entries in the source; they are usually repeats but may differ in a detail not shown here. Equal entries are not always repeated.

Tests used:
Type in all cases: biochemical, horseradish
[1] = biological target: T1, HRP-antiPRP conjugate (Armoracia rusticana, UniProt P00433); test: microtiter plate PRP immunoassay with HRP-antiPRP conjugate and fluorogenic substrate; details: 10 minute incubation at 37° C.; for Fluorescence with PRP: 50 ng/ml PRP; for Fluorescence without PRP: PBS buffer instead of PRP
T1 construct: purchased Sigma
T1 sequence (P00433 31-338 limits assumed): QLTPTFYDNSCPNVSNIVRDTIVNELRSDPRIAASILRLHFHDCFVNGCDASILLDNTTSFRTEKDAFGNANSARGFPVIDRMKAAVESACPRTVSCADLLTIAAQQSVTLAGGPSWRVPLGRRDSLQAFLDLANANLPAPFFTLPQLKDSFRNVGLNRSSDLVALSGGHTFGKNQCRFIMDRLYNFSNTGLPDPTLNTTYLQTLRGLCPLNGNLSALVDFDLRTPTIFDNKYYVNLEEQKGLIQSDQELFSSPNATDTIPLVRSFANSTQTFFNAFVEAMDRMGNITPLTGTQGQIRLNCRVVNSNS
Procedure: Microtiter plate wells were coated with a solution (250 μl/well) of an amine modified glucose oxidase (1 to 190 dilution, 7.6 mg/ml stock solution) and antibodies to polyribosephosphate (1:2000 dilution in 60 mM carbonate buffer, pH 9.6). After standing overnight, the wells were washed with PBS containing 0.05% Tween 20 (W/V).
A stock solution was prepared of the fluorogenic substrate of Example II. A 3.8 mg/10 ml DMF solution (1.22 mM) was diluted 1:10 with PBS buffer immediately before use. A substrate mixture was prepared containing 500 μl of the above stock solution, 694 μl of 1.8M glucose, 400 μl of a stock catalase solution and the volume brought to 2 ml with PBS buffer. The stock catalase solution (3.1-4 mg/ml) was prepared by dialysing catalase (C-100 Sigma) in PBS pH 7.2.
The following protocol was then employed for the assay. Into each microtiter well coated with amino glucose oxidase (see copending application serial No. 398,505, filed July 15, 1982) and antiPRP was added 100 μl of 50 ng/ml PRP or 100 μl of PBS buffer (pH 7.2) and the mixture incubated for one hour at room temperature. At the end of this time, 50 μl of HRP-antiPRP conjugate was added followed by another one hour incubation. At the end of this time, 100 μl of a substrate mixture was added, followed by a 10 minute incubation at 37° C. with shaking, after which time 200 μl of the incubation mixture was diluted with 1.8 ml, of 0.1M phosphate buffer (pH 8.0) and the fluorescence read.

[2] = tested on: horse radish peroxidase; test: change in fluorescence of substrate with HRP and hydrogen peroxide over 60 seconds; details: HRP solution (6.6 ng/ml) 0 μl, substrate 800 μl, H2O2 100 μl, buffer 100 μl; 60 second interval, pH 8
Procedure: (§1) In the next assay, the fluorogenic precursor of Example I was employed. […] An assay solution was prepared comprising the […] compound of Example I, hydrogen peroxide, horse radish peroxidase, and buffer (0.1M phosphate, pH 8.0) and the change in fluorescence in the solution determined over a 60 second interval. The substrate solution which was added was 3.9 mg/100 ml concentration in buffer, the hydrogen peroxide was 9.×10^-4 M, the HRP solution was 6.6 ng/ml containing 0.5 mgBSA/ml and the buffer was 0.1M phosphate, pH 8. The following table indicates the results.

[3] = biological target: T2, horse radish peroxidase (Armoracia rusticana, UniProt P00433); test: as above; details: substrate 800 μl, H2O2 100 μl, 60 second interval, pH 8
T2 sequence (P00433 31-353): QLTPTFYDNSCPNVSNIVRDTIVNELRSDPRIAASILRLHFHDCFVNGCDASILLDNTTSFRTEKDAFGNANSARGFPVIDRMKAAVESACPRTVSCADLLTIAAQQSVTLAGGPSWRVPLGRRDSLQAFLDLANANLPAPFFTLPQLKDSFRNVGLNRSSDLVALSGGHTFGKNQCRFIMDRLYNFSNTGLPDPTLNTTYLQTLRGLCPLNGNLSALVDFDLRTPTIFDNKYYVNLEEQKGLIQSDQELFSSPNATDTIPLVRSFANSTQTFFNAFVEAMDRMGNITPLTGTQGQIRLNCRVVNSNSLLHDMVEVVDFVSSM
Procedure: as §1

[4] = biological target: T3, HRP (Armoracia rusticana, UniProt P00433); test: qualitative test as HRP substrate (generation of a fluorescent product with HRP and H2O2); details: with HRP and H2O2 in aqueous solution, result in words
T3 sequence (P00433 31-353): T2 sequence (P00433 31-353)
Procedure: The sample was filtered through a sintered glass filter to obtain a clear solution, the solvent evaporated and the residue dissolved in 5 ml DMF. The solution was then evaporated to dryness, dissolved in 1 ml. DMF, followed by a dilution with 4 ml buffer and an assay carried out as described previously employing 100 microliters of the substrate.

[5] = HRP-antiPRP dilution 0 (no conjugate)

SMILES: Cc1cc(Oc2ccc3cc(C(=O)O)c(=O)oc3c2)ccc1N [Example II, 3-carboxy-7-(3'-methyl-4'-aminophenoxy)coumarin]
- Fluorescence with PRP [1, 5]: 2.2
- Fluorescence without PRP [1, 5]: 2.4
- Fluorescence with PRP ([1]; HRP-antiPRP dilution 1:80): 79.5
- Fluorescence without PRP ([1]; HRP-antiPRP dilution 1:80): 67.1
- Fluorescence with PRP ([1]; HRP-antiPRP dilution 1:320): 31.8 and 29.6 and 32.5
- Fluorescence without PRP ([1]; HRP-antiPRP dilution 1:320): 11.0 and 14.2 and 13.4
- Fluorescence with PRP ([1]; HRP-antiPRP dilution 1:1280): 13.8
- Fluorescence without PRP ([1]; HRP-antiPRP dilution 1:1280): 5.2

SMILES: Nc1ccc(Oc2ccc3cc(C(=O)O)c(=O)oc3c2)cc1 [Example I, 3-carboxy-7-(4'-aminophenoxy)coumarin]
- ΔF [2]: 6.6
- ΔF ([3]; HRP solution (6.6 ng/ml) 20 μl, buffer 80 μl): 11.0
- ΔF ([3]; HRP solution (6.6 ng/ml) 50 μl, buffer 50 μl): 16.2
- ΔF ([3]; HRP solution (6.6 ng/ml) 100 μl, buffer 0 μl): 29.7 and 30.4

SMILES: Cc1cc(Oc2ccc3cc(C(=O)O)c(=O)oc3c2)cc(Br)c1N [Example VI, 3-carboxy-7-(3'-methyl-4'-amino-5'-bromophenoxy)coumarin]
- activity as HRP substrate [4]: active HRP substrate

SMILES: O=C(O)CNc1ccc(Oc2ccc3cc(C(=O)O)c(=O)oc3c2)cc1 [Example III, 3-carboxy-7-(N-carboxymethyl 4'-aminophenoxy)coumarin]
- activity as HRP substrate [4]: useful as an HRP substrate

SMILES: Cc1cc(Oc2ccc3cc(C(=O)NCCS(=O)(=O)O)c(=O)oc3c2)ccc1N [Example IV, taurine derivative of 3-carboxy-7-(3'-methyl-4'-aminophenoxy)coumarin]
- activity as HRP substrate [4]: useful as a HRP substrate

SMILES: Cc1cc(Oc2ccc3cc(C(=O)N[C@H]4C(O)O[C@H](CO)[C@@H](O)[C@@H]4O)c(=O)oc3c2)ccc1N (stereo partly shown) [Example V, glucosamine derivative of 3-carboxy-7-(3'-methyl-4'aminophenoxy)coumarin]
- activity as HRP substrate [4]: active as an HRP substrate
